biological target: human NaV 1.8 (Homo sapiens, UniProt Q9Y5Y9); experiment: E-VIPR assay for detecting and measuring NaV inhibition properties; type: cell-based; details: E-VIPR assay conducted in the presence of human serum; HEK cells expressing truncated human NaV 1.8; read-out: IC50
Method in brief: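 HEK cells with truncated human NaV1.8 plus KIR2.1 BacMam, hexyl dye loaded 20 min, compound 30 min at room temperature, 11-point 3-fold series […], 0.625% DMSO, with or without human serum. E-VIPR biphasic stimulation at 10 Hz for 10 s; membrane-potential response read as normalized coumarin/oxonol ratio.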

Sequence of human NaV 1.8 (Q9Y5Y9 whole entry, looked up, the tested form may be a part): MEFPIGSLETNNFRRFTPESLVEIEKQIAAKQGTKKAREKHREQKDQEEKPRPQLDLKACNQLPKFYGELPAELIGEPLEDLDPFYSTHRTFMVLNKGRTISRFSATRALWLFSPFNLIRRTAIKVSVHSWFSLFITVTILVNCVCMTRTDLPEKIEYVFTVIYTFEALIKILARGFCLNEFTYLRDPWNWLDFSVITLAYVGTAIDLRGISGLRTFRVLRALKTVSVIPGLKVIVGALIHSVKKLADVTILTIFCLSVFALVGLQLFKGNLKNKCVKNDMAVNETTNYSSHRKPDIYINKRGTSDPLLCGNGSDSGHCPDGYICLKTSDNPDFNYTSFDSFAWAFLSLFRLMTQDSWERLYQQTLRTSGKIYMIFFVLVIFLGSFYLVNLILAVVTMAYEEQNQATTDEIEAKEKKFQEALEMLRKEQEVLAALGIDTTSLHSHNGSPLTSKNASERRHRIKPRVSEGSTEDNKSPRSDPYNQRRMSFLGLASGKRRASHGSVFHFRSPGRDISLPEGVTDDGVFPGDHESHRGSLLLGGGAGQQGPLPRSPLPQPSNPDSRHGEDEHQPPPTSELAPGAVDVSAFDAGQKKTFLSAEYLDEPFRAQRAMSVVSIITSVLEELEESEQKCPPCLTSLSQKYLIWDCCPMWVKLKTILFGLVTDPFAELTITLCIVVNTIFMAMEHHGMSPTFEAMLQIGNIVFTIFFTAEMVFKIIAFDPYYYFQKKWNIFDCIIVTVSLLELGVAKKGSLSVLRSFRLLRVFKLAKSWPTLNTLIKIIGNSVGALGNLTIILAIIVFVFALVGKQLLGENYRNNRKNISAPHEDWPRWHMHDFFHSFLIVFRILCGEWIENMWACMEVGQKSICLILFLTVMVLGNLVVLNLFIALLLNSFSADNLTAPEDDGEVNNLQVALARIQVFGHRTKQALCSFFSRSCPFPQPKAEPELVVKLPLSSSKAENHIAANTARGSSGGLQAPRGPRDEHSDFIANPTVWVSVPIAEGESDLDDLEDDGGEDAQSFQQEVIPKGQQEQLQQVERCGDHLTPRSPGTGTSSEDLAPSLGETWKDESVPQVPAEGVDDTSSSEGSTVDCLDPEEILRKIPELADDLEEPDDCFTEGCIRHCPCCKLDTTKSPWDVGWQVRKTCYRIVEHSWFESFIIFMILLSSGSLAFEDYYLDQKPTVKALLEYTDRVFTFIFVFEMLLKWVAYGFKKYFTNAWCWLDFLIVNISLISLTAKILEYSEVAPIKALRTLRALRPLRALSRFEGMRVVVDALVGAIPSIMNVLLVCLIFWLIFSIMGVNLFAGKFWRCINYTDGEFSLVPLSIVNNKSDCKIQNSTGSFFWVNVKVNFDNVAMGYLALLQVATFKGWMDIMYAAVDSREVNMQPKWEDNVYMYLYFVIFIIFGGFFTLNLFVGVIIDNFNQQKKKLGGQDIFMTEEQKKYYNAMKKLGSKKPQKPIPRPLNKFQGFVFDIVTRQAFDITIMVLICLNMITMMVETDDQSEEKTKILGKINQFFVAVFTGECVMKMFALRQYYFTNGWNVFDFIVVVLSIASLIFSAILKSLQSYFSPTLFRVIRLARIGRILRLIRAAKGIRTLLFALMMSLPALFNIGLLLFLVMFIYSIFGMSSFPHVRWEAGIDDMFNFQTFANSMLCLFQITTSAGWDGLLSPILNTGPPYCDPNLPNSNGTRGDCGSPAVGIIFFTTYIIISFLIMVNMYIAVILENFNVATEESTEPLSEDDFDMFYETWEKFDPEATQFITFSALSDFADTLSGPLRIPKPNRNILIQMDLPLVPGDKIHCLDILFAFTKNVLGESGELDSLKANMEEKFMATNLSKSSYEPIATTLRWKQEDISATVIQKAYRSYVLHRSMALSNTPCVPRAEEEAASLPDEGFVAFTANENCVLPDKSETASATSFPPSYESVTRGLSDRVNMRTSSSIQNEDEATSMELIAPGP

| IC50 [nM] | Structure (SMILES) |
| --- | --- |
| 26 | [2H]C([2H])([2H])Oc1cc(OC(F)(F)F)ccc1Oc1cc(C2=CCC(F)(F)CC2)cc(F)c1C(=O)Nc1ccnc(C(N)=O)c1 [Compound 1003, 4-[[4-(4,4-difluorocyclohexen-1-yl)-2-fluoro-6-[2-(trideuteriomethoxy)-4-(trifluoromethoxy)phenoxy]benzoyl]amino]pyridine-2-carboxamide] |
| 29 | [2H]C([2H])([2H])Oc1cc(OC(F)(F)F)ccc1Oc1cc(C2=CCOC2)cc(F)c1C(=O)Nc1ccnc(C(N)=O)c1 [Compound 1004, 4-[[4-(2,5-dihydrofuran-3-yl)-2-fluoro-6-[2-(trideuteriomethoxy)-4-(trifluoromethoxy)phenoxy]benzoyl]amino]pyridine-2-carboxamide] |
| 120 | [2H]C([2H])([2H])Oc1cc(OC(F)(F)F)ccc1Oc1cc(C2=CCOCC2)cc(F)c1C(=O)Nc1ccnc(C(N)=O)c1 [Compound 1005, 4-[[4-(3,6-dihydro-2H-pyran-4-yl)-2-fluoro-6-[2-(trideuteriomethoxy)-4-(trifluoromethoxy)phenoxy]benzoyl]amino]pyridine-2-carboxamide] |
| > 3000 | [2H]C([2H])([2H])Oc1cc(OC(F)(F)F)ccc1Oc1cc(-c2ccccc2C(N)=O)cc(F)c1C(=O)Nc1ccnc(C(N)=O)c1 [Compound 1006, 4-[[4-(2-carbamoylphenyl)-2-fluoro-6-[2-(trideuteriomethoxy)-4-(trifluoromethoxy)phenoxy]benzoyl]amino]pyridine-2-carboxamide] |
| 170 | [2H]C([2H])([2H])Oc1cc(OC(F)(F)F)ccc1Oc1cc(-c2ccc(OC)cc2)cc(F)c1C(=O)Nc1ccnc(C(N)=O)c1 [Compound 1007, 4-[[2-fluoro-4-(4-methoxyphenyl)-6-[2-(trideuteriomethoxy)-4-(trifluoromethoxy)phenoxy]benzoyl]amino]pyridine-2-carboxamide] |
| 21 | [2H]C([2H])([2H])Oc1cc(OC(F)(F)F)ccc1Oc1cc(C2=COCC2)cc(F)c1C(=O)Nc1ccnc(C(N)=O)c1 [Compound 1008, 4-[[4-(2,3-dihydrofuran-4-yl)-2-fluoro-6-[2-(trideuteriomethoxy)-4-(trifluoromethoxy)phenoxy]benzoyl]amino]pyridine-2-carboxamide] |
| 170 | [2H]C([2H])([2H])Oc1cc(OC(F)(F)F)ccc1Oc1cc(C2=CCC(OC)CC2)cc(F)c1C(=O)Nc1ccnc(C(N)=O)c1 (stereo not drawn) [Compound 1009, 4-[[2-fluoro-4-(4-methoxycyclohexen-1-yl)-6-[2-(trideuteriomethoxy)-4-(trifluoromethoxy)phenoxy]benzoyl]amino]pyridine-2-carboxamide] |
| 13 | [2H]C([2H])([2H])Oc1cc(OC(F)(F)F)ccc1Oc1cc(C2=CCCC2)cc(F)c1C(=O)Nc1ccnc(C(N)=O)c1 [Compound 1010, 4-[[4-(cyclopenten-1-yl)-2-fluoro-6-[2-(trideuteriomethoxy)-4-(trifluoromethoxy)phenoxy]benzoyl]amino]pyridine-2-carboxamide] |
| 470 | [2H]C([2H])([2H])Oc1cc(OC(F)(F)F)ccc1Oc1cc(-c2cccc(C#N)c2)cc(F)c1C(=O)Nc1ccnc(C(N)=O)c1 [Compound 1011, 4-[[4-(3-cyanophenyl)-2-fluoro-6-[2-(trideuteriomethoxy)-4-(trifluoromethoxy)phenoxy]benzoyl]amino]pyridine-2-carboxamide] |
| 190 | [2H]C([2H])([2H])Oc1cc(OC(F)(F)F)ccc1Oc1cc(-c2ccc(C#N)cc2)cc(F)c1C(=O)Nc1ccnc(C(N)=O)c1 [Compound 1012, 4-[[4-(4-cyanophenyl)-2-fluoro-6-[2-(trideuteriomethoxy)-4-(trifluoromethoxy)phenoxy]benzoyl]amino]pyridine-2-carboxamide] |
| 13 | COc1cc(OC(F)(F)F)ccc1Oc1cc(C2=CCC(C(F)(F)F)CC2)cc(F)c1C(=O)Nc1ccnc(C(N)=O)c1 (stereo not drawn) [Compound 1013, 4-[[2-fluoro-6-[2-methoxy-4-(trifluoromethoxy)phenoxy]-4-[4-(trifluoromethyl)cyclohexen-1-yl]benzoyl]amino]pyridine-2-carboxamide] |
| 33 | COc1cc(OC(F)(F)F)ccc1Oc1cc(C2=CC3CCC2C3)cc(F)c1C(=O)Nc1ccnc(C(N)=O)c1 (stereo not drawn) [Compound 1014, 4-[[4-(2-bicyclo[2.2.1]hept-2-enyl)-2-fluoro-6-[2-methoxy-4-(trifluoromethoxy)phenoxy]benzoyl]amino]pyridine-2-carboxamide] |
| 360 | COc1cc(OC(F)(F)F)ccc1Oc1cc(C2=CCC3(CC2)OCCO3)cc(F)c1C(=O)Nc1ccnc(C(N)=O)c1 [Compound 1015, 4-[[4-(1,4-dioxaspiro[4.5]dec-7-en-8-yl)-2-fluoro-6-[2-methoxy-4-(trifluoromethoxy)phenoxy]benzoyl]amino]pyridine-2-carboxamide] |
| 60 | COc1cc(OC(F)(F)F)ccc1Oc1cc(C2=CCC(C(C)(C)C)CC2)cc(F)c1C(=O)Nc1ccnc(C(N)=O)c1 (stereo not drawn) [Compound 1016, 4-[[4-(4-tert-butylcyclohexen-1-yl)-2-fluoro-6-[2-methoxy-4-(trifluoromethoxy)phenoxy]benzoyl]amino]pyridine-2-carboxamide] |
| 130 | [2H]C([2H])([2H])Oc1cc(OC(F)(F)F)ccc1Oc1cc(C2CCOC2)cc(F)c1C(=O)Nc1ccnc(C(N)=O)c1 (stereo not drawn) [Compound 1018, 4-[[2-fluoro-4-tetrahydrofuran-3-yl-6-[2-(trideuteriomethoxy)-4-(trifluoromethoxy)phenoxy]benzoyl]amino]pyridine-2-carboxamide] |
| 79 | [2H]C([2H])([2H])Oc1cc(OC(F)(F)F)ccc1Oc1cc(C2CCOCC2)cc(F)c1C(=O)Nc1ccnc(C(N)=O)c1 [Compound 1019, 4-[[2-fluoro-4-tetrahydropyran-4-yl-6-[2-(trideuteriomethoxy)-4-(trifluoromethoxy)phenoxy]benzoyl]amino]pyridine-2-carboxamide] |
| 9 | COc1cc(OC(F)(F)F)ccc1Oc1cc(C2CC3CCC2C3)cc(F)c1C(=O)Nc1ccnc(C(N)=O)c1 (stereo not drawn) [Compound 1020, 4-[[2-fluoro-6-[2-methoxy-4-(trifluoromethoxy)phenoxy]-4-norboman-2-yl-benzoyl]amino]pyridine-2-carboxamide] |

| IC50 [nM] | Structure (SMILES) |
| --- | --- |
| 41 | [2H]C([2H])([2H])Oc1cc(OC(F)(F)F)ccc1Oc1cc(C#CCC(C)C)cc(F)c1C(=O)Nc1ccnc(C(N)=O)c1 [Compound 1021, 4-[[2-fluoro-4-(4-methylpent-1-ynyl)-6-[2-(trideuteriomethoxy)-4-(trifluoromethoxy)phenoxy]benzoyl]amino]pyridine-2-carboxamide] |
| 190 | [2H]C([2H])([2H])Oc1cc(OC(F)(F)F)ccc1Oc1cc(C#CC(C)(C)C)cc(F)c1C(=O)Nc1ccnc(C(N)=O)c1 [Compound 1022] |
| 100 | [2H]C([2H])([2H])Oc1cc(OC(F)(F)F)ccc1Oc1cc(C#CC2CC2)cc(F)c1C(=O)Nc1ccnc(C(N)=O)c1 [Compound 1023] |
| 150 | [2H]C([2H])([2H])Oc1cc(OC(F)(F)F)ccc1Oc1cc(C#CC2CCC2)cc(F)c1C(=O)Nc1ccnc(C(N)=O)c1 [Compound 1024] |
| 2 | COc1cc(OC(F)(F)F)ccc1Oc1ccc(C(F)(F)F)c(SC)c1C(=O)Nc1ccnc(C(N)=O)c1 [Compound 1025, 4-[[6-[2-methoxy-4-(trifluoromethoxy)phenoxy]-2-methylsulfanyl-3-(trifluoromethyl)benzoyl]amino]pyridine-2-carboxamide] |
| > 3000 | COc1cc(OC(F)(F)F)ccc1Oc1ccc(C(F)(F)F)c(OCCN(C)C)c1C(=O)Nc1ccnc(C(N)=O)c1 [Compound 1027] |
| 590 | COc1cc(OC(F)(F)F)ccc1Oc1ccc(C(F)(F)F)c(OCCC2CC2)c1C(=O)Nc1ccnc(C(N)=O)c1 [Compound 1028] |
| 695 | COc1cc(OC(F)(F)F)ccc1Oc1cc(C2=CCC(C(F)(F)F)CC2)ccc1C(=O)Nc1ccnc(C(N)=O)c1 (stereo not drawn) [Compound 1029, 4-[[2-[2-methoxy-4-(trifluoromethoxy)phenoxy]-4-[4-(trifluoromethyl)cyclohexen-1-yl]benzoyl]amino]pyridine-2-carboxamide] |
| 330 | COc1cc(OC(F)(F)F)ccc1Oc1cc(C2=CCOC2)ccc1C(=O)Nc1ccnc(C(N)=O)c1 [Compound 1030] |
| 2050 | COc1cc(OC(F)(F)F)ccc1Oc1cc(C2=CCC(C(F)(F)F)CC2)ccc1C(=O)Nc1ccnc(C(N)=O)c1 (stereo not drawn) [Compound 1031] |
| 840 | COc1cc(OC(F)(F)F)ccc1Oc1cc(C2CCOC2)ccc1C(=O)Nc1ccnc(C(N)=O)c1 (stereo not drawn) [Compound 1033] |
| 160 | COc1cc(OC(F)(F)F)ccc1Oc1cc2c(c(F)c1C(=O)Nc1ccc(C(N)=O)nc1)OCCO2 [Compound 1034, 5-[[5-fluoro-7-[2-methoxy-4-(trifluoromethoxy)phenoxy]-2,3-dihydro-1,4-benzodioxine-6-carbonyl]amino]pyridine-2-carboxamide] |
| 17 | COc1cc(OC(F)(F)F)ccc1Oc1cc2c(c(F)c1C(=O)Nc1ccnc(C(N)=O)c1)OCCO2 [Compound 1035] |
| 1750 | [2H]C([2H])([2H])Oc1cc(OC(F)(F)F)ccc1Oc1cc2c(cc1C(=O)Nc1ccnc(C(N)=O)c1)OCCO2 [Compound 1036, 4-[[6-[2-(trideuteriomethoxy)-4-(trifluoromethoxy)phenoxy]-2,3-dihydro-1,4-benzodioxine-7-carbonyl]amino]pyridine-2-carboxamide] |
| > 3000 | [2H]C([2H])([2H])Oc1cc(OC(F)(F)F)ccc1Oc1cc2c(cc1C(=O)Nc1ccc(C(N)=O)nc1)OCCO2 [Compound 1037] |
| 170 | COc1cc(OC(F)(F)F)ccc1Oc1cc(OC2C=C(F)C2)cc(C)c1C(=O)Nc1ccnc(C(N)=O)c1 (stereo not drawn) [Compound 1038, 4-[[4-(3-fluorocyclobut-2-en-1-yl)oxy-2-[2-methoxy-4-(trifluoromethoxy)phenoxy]-6-methyl-benzoyl]amino]pyridine-2-carboxamide] |

From patent US12441703B2, “Carboxamides as modulators of sodium channels” (VERTEX PHARMACEUTICALS INCORPORATED, priority 2019, dated 2025)
